Data published in the NIST ThermoML archive (doi:10.1021/je049610v).
± gives the expanded uncertainty stated by the source.

Assays:
[1] = xn = mol fraction of the nth substance listed; conditions: 101 kPa, Liquid
[2] = refractive index (Na D-line) (dimensionless); xn = mol fraction of the nth substance listed; conditions: 101 kPa, Liquid

Which results are given for `COc1ccccc1` [anisole] + C[S+](C)[O-]?
mass density ([1]; 298.15 K, x1 = 0.0938): 1081.5 ± 2.2 kg/m3; speed of sound ([1]; 298.15 K, x1 = 0.0938): 1487 ± 8 m/s; viscosity ([1]; 298.15 K, x1 = 0.0938): 1.836 ± 0.056 mPa·s; mass density ([1]; 298.15 K, x1 = 0.2016): 1066.7 ± 2.2 kg/m3; speed of sound ([1]; 298.15 K, x1 = 0.2016): 1477 ± 8 m/s; viscosity ([1]; 298.15 K, x1 = 0.2016): 1.691 ± 0.052 mPa·s; mass density ([1]; 298.15 K, x1 = 0.3025): 1054.4 ± 2.2 kg/m3; speed of sound ([1]; 298.15 K, x1 = 0.3025): 1468 ± 8 m/s; viscosity ([1]; 298.15 K, x1 = 0.3025): 1.565 ± 0.048 mPa·s; mass density ([1]; 298.15 K, x1 = 0.3987): 1043.6 ± 2.1 kg/m3; speed of sound ([1]; 298.15 K, x1 = 0.3987): 1462 ± 8 m/s; viscosity ([1]; 298.15 K, x1 = 0.3987): 1.466 ± 0.045 mPa·s; mass density ([1]; 298.15 K, x1 = 0.5074): 1032.5 ± 2.1 kg/m3; speed of sound ([1]; 298.15 K, x1 = 0.5074): 1454 ± 8 m/s; viscosity ([1]; 298.15 K, x1 = 0.5074): 1.369 ± 0.043 mPa·s; mass density ([1]; 298.15 K, x1 = 0.594): 1024.1 ± 2.1 kg/m3; speed of sound ([1]; 298.15 K, x1 = 0.594): 1445 ± 8 m/s; viscosity ([1]; 298.15 K, x1 = 0.594): 1.318 ± 0.041 mPa·s; mass density ([1]; 298.15 K, x1 = 0.6956): 1014.7 ± 2.1 kg/m3; speed of sound ([1]; 298.15 K, x1 = 0.6956): 1437 ± 8 m/s; viscosity ([1]; 298.15 K, x1 = 0.6956): 1.249 ± 0.039 mPa·s; mass density ([1]; 298.15 K, x1 = 0.7988): 1005.5 ± 2 kg/m3; speed of sound ([1]; 298.15 K, x1 = 0.7988): 1428 ± 8 m/s; viscosity ([1]; 298.15 K, x1 = 0.7988): 1.157 ± 0.037 mPa·s; mass density ([1]; 298.15 K, x1 = 0.8933): 997.4 ± 2 kg/m3; speed of sound ([1]; 298.15 K, x1 = 0.8933): 1421 ± 8 m/s; viscosity ([1]; 298.15 K, x1 = 0.8933): 1.077 ± 0.034 mPa·s; mass density ([1]; 298.15 K, x1 = 1): 988.9 ± 2 kg/m3; speed of sound ([1]; 298.15 K, x1 = 1): 1410 ± 8 m/s; viscosity ([1]; 298.15 K, x1 = 1): 0.992 ± 0.032 mPa·s; mass density ([1]; 303.15 K, x1 = 0.0938): 1077 ± 2.3 kg/m3; viscosity ([1]; 303.15 K, x1 = 0.0938): 1.683 ± 0.051 mPa·s; mass density ([1]; 303.15 K, x1 = 0.2016): 1062.1 ± 2.3 kg/m3; viscosity ([1]; 303.15 K, x1 = 0.2016): 1.549 ± 0.048 mPa·s; mass density ([1]; 303.15 K, x1 = 0.3025): 1049.9 ± 2.2 kg/m3; viscosity ([1]; 303.15 K, x1 = 0.3025): 1.438 ± 0.045 mPa·s; mass density ([1]; 303.15 K, x1 = 0.3987): 1039.2 ± 2.2 kg/m3; viscosity ([1]; 303.15 K, x1 = 0.3987): 1.347 ± 0.042 mPa·s; mass density ([1]; 303.15 K, x1 = 0.5074): 1027.9 ± 2.2 kg/m3; viscosity ([1]; 303.15 K, x1 = 0.5074): 1.268 ± 0.04 mPa·s; mass density ([1]; 303.15 K, x1 = 0.594): 1019.7 ± 2.2 kg/m3; viscosity ([1]; 303.15 K, x1 = 0.594): 1.219 ± 0.038 mPa·s; mass density ([1]; 303.15 K, x1 = 0.6956): 1010.3 ± 2.1 kg/m3; viscosity ([1]; 303.15 K, x1 = 0.6956): 1.152 ± 0.037 mPa·s; mass density ([1]; 303.15 K, x1 = 0.7988): 1001.4 ± 2.1 kg/m3; viscosity ([1]; 303.15 K, x1 = 0.7988): 1.073 ± 0.034 mPa·s; mass density ([1]; 303.15 K, x1 = 0.8933): 992.8 ± 2.1 kg/m3; viscosity ([1]; 303.15 K, x1 = 0.8933): 1.004 ± 0.032 mPa·s; mass density ([1]; 303.15 K, x1 = 1): 984.1 ± 2.1 kg/m3; viscosity ([1]; 303.15 K, x1 = 1): 0.919 ± 0.03 mPa·s; mass density ([1]; 308.15 K, x1 = 0.0938): 1072.3 ± 2.4 kg/m3; viscosity ([1]; 308.15 K, x1 = 0.0938): 1.529 ± 0.047 mPa·s; mass density ([1]; 308.15 K, x1 = 0.2016): 1057.6 ± 2.3 kg/m3; viscosity ([1]; 308.15 K, x1 = 0.2016): 1.407 ± 0.044 mPa·s; mass density ([1]; 308.15 K, x1 = 0.3025): 1045.3 ± 2.3 kg/m3; viscosity ([1]; 308.15 K, x1 = 0.3025): 1.31 ± 0.041 mPa·s; mass density ([1]; 308.15 K, x1 = 0.3987): 1034.7 ± 2.3 kg/m3; viscosity ([1]; 308.15 K, x1 = 0.3987): 1.228 ± 0.039 mPa·s; mass density ([1]; 308.15 K, x1 = 0.5074): 1023.6 ± 2.3 kg/m3; viscosity ([1]; 308.15 K, x1 = 0.5074): 1.166 ± 0.037 mPa·s; mass density ([1]; 308.15 K, x1 = 0.594): 1015.1 ± 2.2 kg/m3; viscosity ([1]; 308.15 K, x1 = 0.594): 1.119 ± 0.036 mPa·s; mass density ([1]; 308.15 K, x1 = 0.6956): 1005.7 ± 2.2 kg/m3; viscosity ([1]; 308.15 K, x1 = 0.6956): 1.054 ± 0.034 mPa·s; mass density ([1]; 308.15 K, x1 = 0.7988): 996.7 ± 2.2 kg/m3; viscosity ([1]; 308.15 K, x1 = 0.7988): 0.989 ± 0.032 mPa·s; mass density ([1]; 308.15 K, x1 = 0.8933): 988.5 ± 2.2 kg/m3; viscosity ([1]; 308.15 K, x1 = 0.8933): 0.931 ± 0.03 mPa·s; mass density ([1]; 308.15 K, x1 = 1): 979.4 ± 2.1 kg/m3; viscosity ([1]; 308.15 K, x1 = 1): 0.853 ± 0.028 mPa·s; refractive index ([2]; 298.15 K, x1 = 0.0938): 1.4817 ± 0.0064; refractive index ([2]; 298.15 K, x1 = 0.2016): 1.4878 ± 0.0064; refractive index ([2]; 298.15 K, x1 = 0.3025): 1.4929 ± 0.0064; refractive index ([2]; 298.15 K, x1 = 0.3987): 1.4962 ± 0.0064; refractive index ([2]; 298.15 K, x1 = 0.5074): 1.4996 ± 0.0064; refractive index ([2]; 298.15 K, x1 = 0.594): 1.5031 ± 0.0064; refractive index ([2]; 298.15 K, x1 = 0.6956): 1.5069 ± 0.0064; refractive index ([2]; 298.15 K, x1 = 0.7988): 1.5105 ± 0.0064; refractive index ([2]; 298.15 K, x1 = 0.8933): 1.5124 ± 0.0064; refractive index ([2]; 298.15 K, x1 = 1): 1.5148 ± 0.0064; refractive index ([2]; 303.15 K, x1 = 0.0938): 1.4772 ± 0.0064; refractive index ([2]; 303.15 K, x1 = 0.2016): 1.4853 ± 0.0064; refractive index ([2]; 303.15 K, x1 = 0.3025): 1.4901 ± 0.0064; refractive index ([2]; 303.15 K, x1 = 0.3987): 1.4935 ± 0.0064; refractive index ([2]; 303.15 K, x1 = 0.5074): 1.4974 ± 0.0064; refractive index ([2]; 303.15 K, x1 = 0.594): 1.5006 ± 0.0064; refractive index ([2]; 303.15 K, x1 = 0.6956): 1.5043 ± 0.0064; refractive index ([2]; 303.15 K, x1 = 0.7988): 1.5075 ± 0.0064; refractive index ([2]; 303.15 K, x1 = 0.8933): 1.5096 ± 0.0064; refractive index ([2]; 303.15 K, x1 = 1): 1.5124 ± 0.0064; refractive index ([2]; 308.15 K, x1 = 0.0938): 1.4727 ± 0.0064; refractive index ([2]; 308.15 K, x1 = 0.2016): 1.4828 ± 0.0064; refractive index ([2]; 308.15 K, x1 = 0.3025): 1.4873 ± 0.0064; refractive index ([2]; 308.15 K, x1 = 0.3987): 1.4906 ± 0.0064; refractive index ([2]; 308.15 K, x1 = 0.5074): 1.4952 ± 0.0064; refractive index ([2]; 308.15 K, x1 = 0.594): 1.498 ± 0.0064; refractive index ([2]; 308.15 K, x1 = 0.6956): 1.5017 ± 0.0064; refractive index ([2]; 308.15 K, x1 = 0.7988): 1.5046 ± 0.0064; refractive index ([2]; 308.15 K, x1 = 0.8933): 1.5069 ± 0.0064; refractive index ([2]; 308.15 K, x1 = 1): 1.5092 ± 0.0064
